Test results: patent US5863776A, “Method of preparing apoenzyme” (Research Development Foundation, priority 1996, dated 1999)
“Also recorded” adds a separate entry of the source.

Experiments:
MAO B [1] = molecular target: T1, MAO B (Homo sapiens, UniProt P27338); assay: Quantitation of expressed MAO B protein by ELISA in transfected COS-7 cells; type: cell-based; parameters: MAO B Expressed: unit not given here; settings: cofactor added with MAO B cDNA into Rib^- COS-7 cells; 48 hours; mean ± SE, three experiments
T1 construct: expressed in transfected cells; host or cells: COS-7 (African green monkey), riboflavin-containing (Rib+) or riboflavin-depleted (Rib-), transient electroporation
T1 sequence (P27338 1-520): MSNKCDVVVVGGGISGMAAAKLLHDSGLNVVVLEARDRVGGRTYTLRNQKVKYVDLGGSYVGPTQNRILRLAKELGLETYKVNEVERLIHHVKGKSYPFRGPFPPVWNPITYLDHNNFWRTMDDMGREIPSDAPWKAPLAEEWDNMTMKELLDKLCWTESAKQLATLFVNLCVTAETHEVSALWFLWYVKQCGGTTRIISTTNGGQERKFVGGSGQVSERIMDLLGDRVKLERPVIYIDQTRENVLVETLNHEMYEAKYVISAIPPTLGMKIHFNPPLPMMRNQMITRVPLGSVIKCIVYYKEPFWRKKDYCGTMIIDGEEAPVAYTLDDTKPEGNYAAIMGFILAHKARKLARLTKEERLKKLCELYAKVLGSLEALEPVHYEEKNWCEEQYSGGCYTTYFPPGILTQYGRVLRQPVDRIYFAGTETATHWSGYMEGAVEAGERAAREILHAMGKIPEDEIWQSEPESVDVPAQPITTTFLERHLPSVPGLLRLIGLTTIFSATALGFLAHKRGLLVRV
Method: Total protein concentrations of samples containing MAO B holoenzyme, apoenzyme, or variant MAO Bs were determined by a MicroBCA kit (Pierce). All samples were then adjusted to equal protein concentrations and assayed for MAO B protein by ELISA using a modification of the method of Yeomanson and Billett (25) as described previously (18).
MAO B cDNA was expressed sequentially at different time intervals in these cells during this riboflavin depletion process (FIG. 2). Each data point in FIG. 2 represents an individual expression assay. For each assay, a sample of COS-7 cells grown in riboflavin-free medium were transfected with MAO B cDNA via electroporation. Concurrently, Rib^+ COS-7 cells were transfected with MAO B cDNA to serve as a control. Following incubation for 48 hours, the cells were homogenized and assays were performed to determine protein concentration, MAO B concentration by ELISA using polyclonal antibodies, and MAO B activity using [^14 C] benzylamine.
An equal amount of MAO B cDNA (15 μg) was expressed in both types of […]

MAO B [2] = molecular target: T1, MAO B; assay: FAD coupling in vitro (flavinylation assay in cell lysate, 30° C.); type: biochemical; settings: 30° C.
Method: (- - - x - - - ). […] The enzymatic activity of each sample was determined at 1 hour time intervals using [^14 C] benzylamine as substrate.
Apo-MAO B was obtained by expressing MAO B cDNA in Rib^- COS-7 cells. The cells were then harvested and homogenized as described above. One half of the lysate was stirred in the presence of 0.25% Triton X-100 at 4° C. for 50 min. to extract apo-MAO B from the outer mitochondrial membrane. The second half of the lysate was not extracted with Triton X-100 to permit MAO B to remain in the membrane. […] Assays were also carried out in the presence of an energy mixture (10 mM ATP, 32 mM PEP and 2.4 μg pyruvate kinase) and 25% glycerol in the reaction vials. Each sample was run in triplicate. After 1, 2 or 3 hours incubation at 30° C., each sample was assayed for MAO B activity as described below.
(§1) MAO B activity was assayed radiometrically by a modification of the method of Wurtman and Axelrod (26) as described previously (18). Briefly, the reaction mixture contained 200 μl of 50 mM sodium phosphate buffer (pH 7.4), 3.6 nmole of 55 mCi/mmol [^14 C] benzylamine hydrochloride (Amersham), 10 nmoles of unlabeled benzylamine and 10 μl of cell lysate. Samples were run in triplicate, and one out of each set was denatured with […] of 6N HCl prior to the addition of substrate to serve as an internal control. All reactions were incubated for 9 minutes at 37° C., and terminated by the addition of 25 μl of 6N HCl. The reaction product was extracted with 500 μl of toluene, and an aliquot (200 μl) of the organic phase from each sample was counted in liquid scintillation fluid (Bio-Safe) in a Beckman LB 3801 scintillation counter.

[3] = system: L-gulono-g-lactone oxidase; settings: cited from earlier work
MAO B [4] = molecular target: T1, MAO B; assay: FAD coupling in intact cells: MAO B enzymatic activity after electroporation of MAO B cDNA with cofactor into Rib^- COS-7 cells ([^14 C] benzylamine substrate); type: cell-based; parameters: Percent of Holo-MAO B Activity: concentration or dose not given beside the values
Method: (§2) Wild-type or mutant MAO B cDNAs were transiently transfected into COS-7 cells by electroporation (23) as previously described (18). Briefly, Rib^+ - or Rib^- COS-7 cells were harvested during late log phase growth and resuspended to a concentration of 3.1×10^6 cells/ml in either riboflavin-containing or riboflavin-free medium, respectively. Wild-type or mutant MAO B cDNAs ([…]) were added to 0.8 ml of cell suspension. […] Electroporation was carried out in a Bio-Rad Gene Pulser with a setting of 250 V and 500 μF. Cells were resuspended in 15 ml of riboflavin-containing or riboflavin-free medium and incubated at 37° C. with 5% CO2. Transfected COS-7 cells were harvested at 48 hours and homogenized in a lysis solution containing 20 mM Tris-HCl, 1 mM EDTA, 0.5 mM PMSF, pH 8.0. The homogenate was diluted with an equal volume of the same buffer supplemented with 300 mM NaCl to obtain a 150 mM final NaCl concentration. Triton X-100 (Pierce) was added to the lysate to give a final concentration of 0.25%, and the samples were allowed to stir for 50 min. at 4° C. to extract MAO B from the outer mitochondrial membrane. After Triton extraction, the lysate was centrifuged at 1300×g for 5 min. at 4° C. to remove insoluble cell debris.
as §1
FMN or riboflavin were also capable of restoring approximately 75% of MAO B holoenzyme activity. However, only 40% of MAO B holoenzyme activity was obtained by the addition of 8α-hydroxyriboflavin.
Various cofactors were added with MAO B cDNA into Rib^- COS7 cells

MAO B [5] = assay: [^14 C] FAD incorporation into wild-type or mutant MAO B in Rib^- COS-7 cells (immunoprecipitation, fluorography); type: binding, human; settings: about 59 kDa; equal MAO B concentrations
Method: Mutagenesis was carried out by the method of Deng and Nickoloff (22) using a Transformer Site-directed Mutagenesis kit (Clontech). Glu in position 34 was replaced with Asp (E34D), Gln (E34Q), or Ala (E34A), and Val in position 10 was replaced with Ile (V10I) as described by Kwan et al. (18).
as §2
Transfected Rib^+ - or Rib^- COS-7 cells were homogenized, and extracted with 0.25% Triton X-100 for 50 minutes at 4° C. The cell lysates were centrifuged at 1300×g for 5 minutes, and an aliqout of each supernatant was analyzed for MAO B concentration by ELISA. All supernatants were then adjusted to equal MAO B concentration and incubated with polyclonal goat anti-MAO B antibody (10 μg) overnight at 4° C. Protein-G Sepharose beads (Pierce) were added (50 μl) and incubation was continued for 3 hours. The protein-G Sepharose/goat antibody/MAO B immmunocomplex was collected by centrifugation at 10,000×g for 20 seconds and washed 6 times with 150 μl of 20 mM Tris buffer, pH 8.0. The immunocomplex was then dissolved in SDS-PAGE sample buffer and analyzed by Western blot or fluorography.
The immunoprecipitated proteins (obtained as described above) were subjected to electrophoresis in a 10% SDS-polyacrylamide gel and examined by Western blotting as previously described (18). The immunoprecipitated proteins (obtained as described above) were subjected to electrophoresis in a 10% SDS-polyacrylamide gel. The SDS-PAGE gel was fixed by soaking in 7% acetic acid, 10% methanol, 83% H2 O for 1 hour, and then processed for fluorography as described by Bonner and Laskey (27). The dried gel was exposed to Kodak X-OMAT AR film at -80° C. for 2 weeks.
The expressed wild-type and variant MAO Bs were adjusted to equal concentrations using ELISA before immunoprecipitation, and then analyzed by fluorography. The amount of incorporation of [^14 C] […] FAD was incorporated into the enzyme.

MAO B [6] = settings: mutation at Glu^34; cited from earlier work

| Molecule | MAO B Expressed (MAO B [1]) | MAO B catalytic activity after adding exogenous FAD to apo-MAO B (MAO B [2]; Triton extracted or non-extracted lysate) | MAO B activity after adding exogenous FAD to apo-MAO B (MAO B [2]; with energy mixture and glycerol) | covalently bound FAD [3] | enzymatic activity upon addition of FAD [3] | restoration of active MAO B (in words) (MAO B [4]; cofactor added with MAO B cDNA during electroporation) | Enzymatic Activity (MAO B [4]; cofactor added with MAO B cDNA into Rib^- COS-7 cells, 48 hours, mean ± SE, three experiments) | Percent of Holo-MAO B Activity (MAO B [4]; relative to holo-MAO B expressed in Rib^+ COS-7 cells, 2880 min) | [^14 C] FAD incorporation (band on fluorogram) (MAO B [5]) | loss of activity (in words) (MAO B [6]) |
| --- | --- | --- | --- | --- | --- | --- | --- | --- | --- | --- |
| Cc1cc2nc3c(=O)[nH]c(=O)nc-3n(C[C@H](O)[C@H](O)[C@H](O)COP(=O)(O)OP(=O)(O)OC[C@H]3O[C@@H](n4cnc5c(N)ncnc54)[C@H](O)[C@@H]3O)c2cc1C [FAD] | 0.86 ± 0.03 | no MAO B catalytic activity was observed; also recorded: MAO B activity could not be regenerated | no MAO B activity was obtained; also recorded: unsuccessful | no covalently bound FAD could be obtained | Enzymatic activity was observed | equal levels of MAO B activity; also recorded: active MAO B (containing FAD) was obtained | 0.85 ± 0.01 μmol benzylamine/minute/mg MAO | ~75% | – | – |
| E34A: MAO B with Glu in position 34 replaced with Ala (protein, UniProt P27338 2-520, looked up, variant E34A) Amine oxidase …: SNKCDVVVVGGGISGMAAAKLLHDSGLNVVVLAARDRVGGRTYTLRNQKVKYVDLGGSYVGPTQNRILRLAKELGLETYKVNEVERLIHHVKGKSYPFRGPFPPVWNPITYLDHNNFWRTMDDMGREIPSDAPWKAPLAEEWDNMTMKELLDKLCWTESAKQLATLFVNLCVTAETHEVSALWFLWYVKQCGGTTRIISTTNGGQERKFVGGSGQVSERIMDLLGDRVKLERPVIYIDQTRENVLVETLNHEMYEAKYVISAIPPTLGMKIHFNPPLPMMRNQMITRVPLGSVIKCIVYYKEPFWRKKDYCGTMIIDGEEAPVAYTLDDTKPEGNYAAIMGFILAHKARKLARLTKEERLKKLCELYAKVLGSLEALEPVHYEEKNWCEEQYSGGCYTTYFPPGILTQYGRVLRQPVDRIYFAGTETATHWSGYMEGAVEAGERAAREILHAMGKIPEDEIWQSEPESVDVPAQPITTTFLERHLPSVPGLLRLIGLTTIFSATALGFLAHKRGLLVRV | – | – | – | – | – | – | – | – | did not exhibit bands | complete loss of activity; also recorded: devoid of enzymatic activity |
| E34Q: MAO B with Glu in position 34 replaced with Gln (protein, UniProt P27338 2-520, looked up, variant E34Q) Amine oxidase …: SNKCDVVVVGGGISGMAAAKLLHDSGLNVVVLQARDRVGGRTYTLRNQKVKYVDLGGSYVGPTQNRILRLAKELGLETYKVNEVERLIHHVKGKSYPFRGPFPPVWNPITYLDHNNFWRTMDDMGREIPSDAPWKAPLAEEWDNMTMKELLDKLCWTESAKQLATLFVNLCVTAETHEVSALWFLWYVKQCGGTTRIISTTNGGQERKFVGGSGQVSERIMDLLGDRVKLERPVIYIDQTRENVLVETLNHEMYEAKYVISAIPPTLGMKIHFNPPLPMMRNQMITRVPLGSVIKCIVYYKEPFWRKKDYCGTMIIDGEEAPVAYTLDDTKPEGNYAAIMGFILAHKARKLARLTKEERLKKLCELYAKVLGSLEALEPVHYEEKNWCEEQYSGGCYTTYFPPGILTQYGRVLRQPVDRIYFAGTETATHWSGYMEGAVEAGERAAREILHAMGKIPEDEIWQSEPESVDVPAQPITTTFLERHLPSVPGLLRLIGLTTIFSATALGFLAHKRGLLVRV | – | – | – | – | – | – | – | – | did not exhibit bands | complete loss of activity; also recorded: devoid of enzymatic activity |
